Like-named read-outs stand apart in the source and are kept apart here.
Experiments:
[1] = target: T1, Full length wild-type cereblon CRBN (Homo sapiens, UniProt Q96SW2); assay: Fluorescence polarization (FP) assay, cereblon binding
T1 construct: Full length wild-type cereblon CRBN (80.0 nM, 10 μL) was incubated in assay buffer
Description: Compound activity was monitored in a fluorescence polarization (FP) homogeneous assay using 1-[5-({2-[2-(2-{[2-(2,6-dioxopiperidin-3-yl)-1,3-dioxo-2,3-dihydro-1H-isoindol-4-yl]oxy}acetamido)ethoxy]ethyl}carbamoyl)pentyl]-3,3-dimethyl-2-[(1E,3E)-5-[(2E)-1,3,3-trimethyl-5-sulfo-2,3-dihydro-1H-indol-2-ylidene]penta-1,3-dien-1-yl]-3H-indol-1-ium-5-sulfonate as a fluorescent probe. Unless otherwise stated, all reagents were purchased from Sigma Aldrich. […] Full length wild-type cereblon CRBN (80.0 nM, 10 μL) was incubated in assay buffer containing 20 mM HEPES (pH 8.0), […], 0.5 mM TCEP and 0.05% Tween 20 in the presence or absence of compound (300 nL). Inhibitors were stored as 10 mM DMSO stocks in an inert environment (low humidity, dark, low oxygen, room temperature) using the Storage Pod System. […] Following incubation at room temperature for 30 min, the assay was initiated by dispensing the probe to a final concentration of […] (2.5 nL of a 20 μM stock) using the Echo E5XX. […] The FP signal was subsequently normalized to the no-compound control (i.e., DMSO). Analysis and IC50 values were derived using Dotmatics (Dotmatics UK) software.

CRBN-DDB1 = CRBN-DDB1 (Homo sapiens, UniProt Q96SW2); assay: HTRF binding of compounds to CRBN
Method: Compound activity was monitored in a Homogenous Time-Resolved Fluorescence (HTRF) assay using 1-[5-({2-[2-(2-{[2-(2,6-dioxopiperidin-3-yl)-1,3-dioxo-2,3-dihydro-1H-isoindol-4-yl]oxy}acetamido)ethoxy]ethyl}carbamoyl)pentyl]-3,3-dimethyl-2-[(1E,3E)-5-[(2E)-1,3,3-trimethyl-5-sulfo-2,3-dihydro-1H-indol-2-ylidene]penta-1,3-dien-1-yl]-3H-indol-1-ium-5-sulfonate as a fluorescent probe. […] Compounds were stored in dry, ambient temperatures at 10 mM. A 10-point, 1:3 dilution series was prepared from 10 mM stock concentrations in Echo-compatible LDV plates. 10 nL of each compound dilution series was dispensed into assays wells using an Echo 650 (Labcyte inc. USA). […] The assay was then allowed to incubate for 30 min at ambient temperature after transferring compound. […] Analysis and IC50 values were derived using KNIME analytics (KNIME Zurich) transformation and fitting within Collaborative Drug Discovery (Collaborative Drug Discovery USA). Ki was derived from the geometric mean of the IC50 values using the Cheng-Prustoff transformation.

[2] = bounds stated in the text lists b2059-b2061, read-out: IC50 value
[3] = cereblon binding, class code, read-out: rFP IC50
[4] = IC50 value, bounds stated in the text lists b2059-b2061
[5] = rFP IC50 [nM], cereblon binding, class code
[6] = read-out: HTRF Class (Cereblon binding, HTRF IC50)

T1 sequence (Q96SW2 whole entry): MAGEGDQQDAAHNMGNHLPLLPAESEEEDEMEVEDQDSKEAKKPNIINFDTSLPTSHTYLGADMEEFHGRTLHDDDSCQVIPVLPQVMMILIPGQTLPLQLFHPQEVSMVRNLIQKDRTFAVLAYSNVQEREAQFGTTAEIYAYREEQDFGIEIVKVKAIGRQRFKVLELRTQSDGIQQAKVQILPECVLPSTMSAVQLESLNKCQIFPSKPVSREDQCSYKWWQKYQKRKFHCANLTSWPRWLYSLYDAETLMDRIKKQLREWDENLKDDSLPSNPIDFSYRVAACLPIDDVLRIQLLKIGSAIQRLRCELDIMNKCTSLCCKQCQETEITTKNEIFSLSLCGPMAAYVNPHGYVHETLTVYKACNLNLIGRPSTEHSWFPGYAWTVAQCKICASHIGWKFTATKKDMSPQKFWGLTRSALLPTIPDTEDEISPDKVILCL
Sequence of CRBN-DDB1 (Q96SW2 whole entry): as above
Sequence of CRBN-DDB1 (Q16531 whole entry partner): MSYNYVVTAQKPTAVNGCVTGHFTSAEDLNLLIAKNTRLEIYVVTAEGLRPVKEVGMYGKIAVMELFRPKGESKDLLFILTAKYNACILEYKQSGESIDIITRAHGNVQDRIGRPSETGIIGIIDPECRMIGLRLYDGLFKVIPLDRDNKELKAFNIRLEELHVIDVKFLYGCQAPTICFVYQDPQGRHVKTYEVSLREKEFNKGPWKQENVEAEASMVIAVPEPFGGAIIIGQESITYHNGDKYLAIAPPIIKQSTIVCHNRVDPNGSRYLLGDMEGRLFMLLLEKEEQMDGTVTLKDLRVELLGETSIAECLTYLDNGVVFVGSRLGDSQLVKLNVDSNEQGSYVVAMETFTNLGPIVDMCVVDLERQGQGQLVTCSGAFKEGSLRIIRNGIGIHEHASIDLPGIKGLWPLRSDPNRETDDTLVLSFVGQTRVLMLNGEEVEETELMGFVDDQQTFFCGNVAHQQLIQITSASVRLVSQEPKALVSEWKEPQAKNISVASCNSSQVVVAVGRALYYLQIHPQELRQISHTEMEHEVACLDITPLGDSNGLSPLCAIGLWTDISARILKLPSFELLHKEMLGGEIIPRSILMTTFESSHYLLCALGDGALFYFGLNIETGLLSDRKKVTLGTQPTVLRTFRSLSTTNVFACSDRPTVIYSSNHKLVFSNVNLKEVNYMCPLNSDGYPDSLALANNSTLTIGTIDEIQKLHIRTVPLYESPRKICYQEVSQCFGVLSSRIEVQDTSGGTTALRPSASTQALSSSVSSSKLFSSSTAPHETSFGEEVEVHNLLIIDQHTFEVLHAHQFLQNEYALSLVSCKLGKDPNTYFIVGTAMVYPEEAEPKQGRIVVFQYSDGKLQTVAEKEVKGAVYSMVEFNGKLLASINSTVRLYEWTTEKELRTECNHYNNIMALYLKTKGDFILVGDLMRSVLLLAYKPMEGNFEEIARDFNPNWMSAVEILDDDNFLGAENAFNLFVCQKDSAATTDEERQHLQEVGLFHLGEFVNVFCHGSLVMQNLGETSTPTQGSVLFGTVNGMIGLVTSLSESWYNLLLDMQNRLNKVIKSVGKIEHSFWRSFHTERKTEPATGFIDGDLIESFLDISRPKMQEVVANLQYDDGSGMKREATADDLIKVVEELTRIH

For `Cc1cc(NC(=O)OCc2ccc3c(c2)C(=O)N(C2CCC(=O)NC2=O)C3)cc(C)c1F` (stereo not shown) [Compound 124, (2-(2,6-dioxopiperidin-3-yl)-3-oxoisoindolin-5-yl)methyl (4-fluoro-3,5-dimethylphenyl)carbamate], the IC50 [1, 2] was less than 1100 nM.

`O=C1CCC(N2Cc3ccc(COC(=O)NC45CC(c6ccccc6)(C4)C5)cc3C2=O)C(=O)N1` (stereo not shown) [Compound 126, (2-(2,6-dioxopiperidin-3-yl)-3-oxoisoindolin-5-yl)methyl (3-phenylbicyclo[1.1.1]pentan-1-yl carbamate] showed an IC50 [1, 2] of less than 1100 nM.

Work on `Cc1c(F)cc(NC(=O)OCc2ccc3c(c2)C(=O)N(C2CCC(=O)NC2=O)C3)cc1F` (stereo not shown) [Compound 127, (2-(2,6-dioxopiperidin-3-yl)-3-oxoisoindolin-5-yl)methyl (3,5-difluoro-4-methylphenyl)carbamate] yielded an IC50 [1, 2] of less than 1700 nM and an IC50 [1, 3] of 1100 to 1700 nM.

In the case of `Cc1ccc(OC(F)(F)F)cc1NC(=O)OCc1ccc2c(c1)C(=O)N(C1CCC(=O)NC1=O)C2` (stereo not shown) [Compound 128], the IC50 [1, 4] is reported as less than 1100 nM and the IC50 [1, 5] is reported as 500 to 1100 nM.

`Cc1ccc(NC(=O)OCc2ccc3c(c2)C(=O)N(C2CCC(=O)NC2=O)C3)cc1C` (stereo not shown) [Compound 129] was tested, and the IC50 [1, 4] was less than 1100 nM.

Work on `O=C1CCC(N2Cc3ccc(COC(=O)NC4COC(c5ccccc5)OC4)cc3C2=O)C(=O)N1` (stereo not shown) [Compound 130] yielded an IC50 [1, 4] of less than 1100 nM and an IC50 [1, 5] of 500 to 1100 nM.

In the case of `CC(C)(C)c1ccc(NC(=O)OCc2ccc3c(c2)C(=O)N(C2CCC(=O)NC2=O)C3)nc1` (stereo not shown) [Compound 131, (2-(2,6-dioxopiperidin-3-yl)-3-oxoisoindolin-5-yl)methyl (5-(tert-butyl)pyridin-2-yl)carbamate], the IC50 [1, 2] is reported as less than 1100 nM and the IC50 [1, 3] is reported as 500 to 1100 nM.

`O=C1CCC(N2Cc3ccc(COC(=O)Nc4cc(F)c(F)c(Cl)c4)cc3C2=O)C(=O)N1` (stereo not shown) [Compound 132] showed an IC50 [1, 4] of less than 1100 nM and an IC50 [1, 5] of 500 to 1100 nM.

`Cc1ccc(NC(=O)OCc2ccc3c(c2)C(=O)N(C2CCC(=O)NC2=O)C3)cc1F` (stereo not shown) [Compound 133, (2-(2,6-dioxopiperidin-3-yl)-3-oxoisoindolin-5-yl)methyl (3-fluoro-4-methylphenyl)carbamate] showed an IC50 [1, 2] of less than 1100 nM and an IC50 [1, 3] of 500 to 1100 nM.

Work on `O=C1CCC(N2Cc3ccc(COC(=O)Nc4ccccc4)cc3C2=O)C(=O)N1` (stereo not shown) [Compound 138, (2-(2,6-dioxopiperidin-3-yl)-3-oxoisoindolin-5-yl)methyl phenylcarbamate] yielded an IC50 [1, 2] of less than 1100 nM and an IC50 [1, 3] of 500 to 1100 nM.

`O=C1CCC(N2Cc3ccc(COC(=O)Nc4cc(C(F)(F)F)ns4)cc3C2=O)C(=O)N1` (stereo not shown) [Compound 139] showed an IC50 [1, 4] of less than 1100 nM and an IC50 [1, 5] of 500 to 1100 nM.

With `Cc1cc(F)c(NC(=O)OCc2ccc3c(c2)C(=O)N(C2CCC(=O)NC2=O)C3)cc1Cl` (stereo not shown) [Compound 141, (2-(2,6-dioxopiperidin-3-yl)-3-oxoisoindolin-5-yl)methyl (5-chloro-2-fluoro-4-methylphenyl)carbamate] the IC50 [1, 2] was less than 1100 nM and the IC50 [1, 3] was 500 to 1100 nM.

With `CC(C)(C)c1ccc(NC(=O)OCc2ccc3c(c2)C(=O)N(C2CCC(=O)NC2=O)C3)c(F)c1` (stereo not shown) [Compound 142, (2-(2,6-dioxopiperidin-3-yl)-3-oxoisoindolin-5-yl)methyl (4-(tert-butyl)-2-fluorophenyl)carbamate] the IC50 [1, 2] was less than 1100 nM and the IC50 [1, 3] was 500 to 1100 nM.

Work on `Cc1cc(Cl)cc(NC(=O)OCc2ccc3c(c2)C(=O)N(C2CCC(=O)NC2=O)C3)c1` (stereo not shown) [Compound 144, (2-(2,6-dioxopiperidin-3-yl)-3-oxoisoindolin-5-yl)methyl (3-chloro-5-methylphenyl)carbamate] yielded an IC50 [1, 2] of less than 1700 nM and an IC50 [1, 3] of 1100 to 1700 nM.

`O=C1CCC(N2Cc3ccc(COC(=O)Nc4cc(OC(F)(F)F)ccc4F)cc3C2=O)C(=O)N1` (stereo not shown) [Compound 145, (2-(2,6-dioxopiperidin-3-yl)-3-oxoisoindolin-5-yl)methyl(2-fluoro-5-(trifluoromethoxy)phenyl)carbamate] gave an IC50 ([1]; IC50 value) of less than 1100 nM and an IC50 ([1]; rFP IC50 [nM]) of 500 to 1100 nM.

Work on `Cc1cc(F)cc(NC(=O)OCc2ccc3c(c2)C(=O)N(C2CCC(=O)NC2=O)C3)c1` (stereo not shown) [Compound 146, (2-(2,6-dioxopiperidin-3-yl)-3-oxoisoindolin-5-yl)methyl (3-fluoro-5-methylphenyl) carbamate] yielded an IC50 [1, 2] of less than 1700 nM and an IC50 [1, 3] of 1100 to 1700 nM.

`CCc1nscc1NC(=O)OCc1ccc2c(c1)C(=O)N(C1CCC(=O)NC1=O)C2` (stereo not shown) [Compound 147] gave an IC50 [1, 2] of less than 1100 nM and an IC50 [1, 3] of 500 to 1100 nM.

`O=C1CCC(N2Cc3ccc(COC(=O)Nc4ccnc(-c5ccccc5)c4)cc3C2=O)C(=O)N1` (stereo not shown) [Compound 149] was tested, and the IC50 [1, 4] was less than 1100 nM.

For `CC1(c2ccc(NC(=O)OCc3ccc4c(c3)C(=O)N(C3CCC(=O)NC3=O)C4)cn2)CC1` (stereo not shown) [Compound 152, (2-(2,6-dioxopiperidin-3-yl)-3-oxoisoindolin-5-yl)methyl (6-(1-methylcyclopropyl)pyridin-3-yl)carbamate], the IC50 [1, 2] was less than 1100 nM.

`CC(C)(C)c1cccc(NC(=O)OCc2ccc3c(c2)C(=O)N(C2CCC(=O)NC2=O)C3)c1` (stereo not shown) [Compound 153, (2-(2,6-dioxopiperidin-3-yl)-3-oxoisoindolin-5-yl)methyl (3-(tert-butyl)phenyl)carbamate] showed an IC50 [1, 2] of less than 1100 nM and an IC50 [1, 3] of 500 to 1100 nM.

Compound `C[C@H]1CCCN1c1ccc(NC(=O)OCc2ccc3c(c2)C(=O)N(C2CCC(=O)NC2=O)C3)cn1` (stereo partly drawn) [Compound 156, (2-(2,6-dioxopiperidin-3-yl)-3-oxoisoindolin-5-yl)methyl (6-((S)-2-methylpyrrolidin-1-yl)pyridin-3-yl)carbamate] has an IC50 [1, 2] of less than 1100 nM.

With `C[C@@H]1CCCN1c1ccc(NC(=O)OCc2ccc3c(c2)C(=O)N(C2CCC(=O)NC2=O)C3)cn1` (stereo partly drawn) [Compound 157, (2-(2,6-dioxopiperidin-3-yl)-3-oxoisoindolin-5-yl)methyl (6-((R)-2-methylpyrrolidin-1-yl)pyridin-3-yl)carbamate] the IC50 [1, 2] was less than 1100 nM.

`O=C1CCC(N2Cc3ccc(COC(=O)Nc4cc(Cl)ccc4F)cc3C2=O)C(=O)N1` (stereo not shown) [Compound 163, (2-(2,6-dioxopiperidin-3-yl)-3-oxoisoindolin-5-yl)methyl (5-chloro-2-fluorophenyl)carbamate] was tested, and the IC50 (CRBN-DDB1; [6]) was 0.1 to 1 µM.

With `O=C1CCC(N2Cc3ccc(COC(=O)Nc4ccc(C5CCC5)cc4F)cc3C2=O)C(=O)N1` (stereo not shown) [Compound 164, (2-(2,6-dioxopiperidin-3-yl)-3-oxoisoindolin-5-yl)methyl (4-cyclobutyl-2-fluorophenyl)carbamate] the IC50 (CRBN-DDB1; [6]) was 0.1 to 1 µM.

`Cc1cc(F)c(NC(=O)OCc2ccc3c(c2)C(=O)N(C2CCC(=O)NC2=O)C3)c(F)c1` (stereo not shown) [Compound 166, (2-(2,6-dioxopiperidin-3-yl)-3-oxoisoindolin-5-yl)methyl (2,6-difluoro-4-methylphenyl)carbamate] showed an IC50 (CRBN-DDB1; [6]) of less than 0.1 µM.

Work on `O=C1CCC(N2Cc3ccc(COC(=O)NC4CN(c5ccccc5)C4)cc3C2=O)C(=O)N1` (stereo not shown) [Compound 167] yielded an IC50 (CRBN-DDB1) of less than 0.1 µM.

`O=C1CCC(N2Cc3ccc(COC(=O)NC4CN(Cc5ccccc5)C4)cc3C2=O)C(=O)N1` (stereo not shown) [Compound 168] showed an IC50 (CRBN-DDB1) of 0.1 to 1 µM.

With `O=C1CCC(N2Cc3ccc(COC(=O)Nc4cccc(OC(F)(F)F)c4F)cc3C2=O)C(=O)N1` (stereo not shown) [Compound 169] the IC50 (CRBN-DDB1) was 0.1 to 1 µM.

Compound `CC(C)(C)c1cccc(NC(=O)OCc2ccc3c(c2)C(=O)N(C2CCC(=O)NC2=O)C3)n1` (stereo not shown) [Compound 170, (2-(2,6-dioxopiperidin-3-yl)-3-oxoisoindolin-5-yl)methyl (6-(tert-butyl)pyridin-2-yl)carbamate] has an IC50 (CRBN-DDB1; [6]) of 0.1 to 1 µM.

Work on `O=C1CCC(N2Cc3ccc(COC(=O)Nc4cccc5c4OCC5)cc3C2=O)C(=O)N1` (stereo not shown) [Compound 173] yielded an IC50 (CRBN-DDB1) of 0.1 to 1 µM.

In the case of `O=C1CCC(N2Cc3ccc(COC(=O)NC45CC(c6ccccc6F)(C4)C5)cc3C2=O)C(=O)N1` (stereo not shown) [Compound 174, (2-(2,6-dioxopiperidin-3-yl)-3-oxoisoindolin-5-yl)methyl (3-(2-fluorophenyl)bicyclo[1.1.1]pentan-1-yl) carbamate], the IC50 (CRBN-DDB1; [6]) is reported as less than 0.1 µM.

Work on `Cc1cc(NC(=O)OCc2ccc3c(c2)C(=O)N(C2CCC(=O)NC2=O)C3)cc(Cl)c1C#N` (stereo not shown) [Compound 177, (2-(2,6-dioxopiperidin-3-yl)-3-oxoisoindolin-5-yl)methyl(3-chloro-4-cyano-5-methylphenyl)carbamate] yielded an IC50 (CRBN-DDB1) of 0.1 to 1 µM.

Compound `Cc1ccc(NC(=O)OCc2ccc3c(c2)C(=O)N(C2CCC(=O)NC2=O)C3)c(F)c1Cl` (stereo not shown) [Compound 179, (2-(2,6-dioxopiperidin-3-yl)-3-oxoisoindolin-5-yl) methyl (3-chloro-2-fluoro-4-methylphenyl)carbamate] has an IC50 (CRBN-DDB1; [6]) of 0.1 to 1 µM.

In the case of `Cc1cc2c(c(NC(=O)OCc3ccc4c(c3)C(=O)N(C3CCC(=O)NC3=O)C4)c1)OCC2` (stereo not shown) [Compound 182], the IC50 (CRBN-DDB1) is reported as 0.1 to 1 µM.
